According to patent US11773127B2, “Compounds and methods for treating bacterial infections” (Washington University, priority 2017, dated 2023):
Where two headings read alike, the source gives them in different places.

What was measured:
FmlHLD [1] = target: T1, FmlHLD (Escherichia coli, UniProt P77588); assay: biochemical; assay type: binding, E. coli; details: for PI10 (percent inhibition): galactoside at 10 μM, 10 µM; for PI100 (percent inhibition): galactoside at 100 μM, 100 µM; for % Inhibition at [μM] [100]: compound at 100 μM
T1 construct: 6xHis (C); made in house; host or cells: E. coli C600, periplasm, pTRC99a
Procedure, shortened: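 Sialidase-treated bovine submaxillary mucin (ds-BSM) coated wells, BSA-blocked, then biotinylated FmlH^LD (20 μg/mL) with or without compound for 1 h at room temperature. Bound lectin detected by streptavidin-HRP/TMB, A450.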

FmlHLD [2] = target: T1, FmlHLD; assay: biochemical; assay type: binding, E. coli
Description: Bio-layer interferometry (BLI) was used to quantitate the binding affinity of select galactosides to FmlH.
Thereafter, pins were dipped in PBS for 120 s and transferred to protein samples (varying concentration of FmlHLD or fixed concentration of FmlHLD with varying concentration of galactoside compounds) for association for 300-600 s.

[3] = read-out: % Inhibition at [μM] [100], compound at 100 μM, inhibition of FmlHLD binding to ds-BSM
[4] = read-out: PI100 (percent inhibition), galactoside at 100 μM, mean with standard error of the mean
[5] = Kd (μM), inhibitory constants, fixed FmlHLD, varying galactoside in solution, immobilized ser-TF
[6] = mean with standard error of the mean
[7] = read-out: PI1 (percent inhibition), galactoside at 1 μM, mean with standard error of the mean
[8] = read-out: PI10 (percent inhibition), galactoside at 10 μM, mean with standard error of the mean
[9] = read-out: % Inhibition at [μM] [1], compound at 1 μM, inhibition of FmlHLD binding to ds-BSM
[10] = read-out: % Inhibition at [μM] [10], compound at 10 μM, inhibition of FmlHLD binding to ds-BSM
[11] = inhibition of FmlHLD binding to ds-BSM
[12] = soluble compound at 100 μM (0.1 mM)

T1 sequence (P77588 25-182): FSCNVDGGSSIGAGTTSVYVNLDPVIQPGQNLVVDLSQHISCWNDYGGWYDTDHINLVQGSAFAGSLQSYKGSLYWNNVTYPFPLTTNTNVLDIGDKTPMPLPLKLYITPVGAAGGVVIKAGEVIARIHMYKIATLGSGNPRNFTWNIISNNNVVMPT

## CC(=O)N[C@@H]1[C@@H](O)[C@@H](O)[C@@H](CO)O[C@H]1O (stereo in doubt) [GalNAc, N-acetylgalactosamine, reference compound]
FmlHLD [1]; [3]
  inhibition at 100 µM: 28.4%
FmlHLD [1]; [4]
  inhibition at 100 µM: 28.5 ± 5.2%
FmlHLD [1]; soluble compound at 1 mM
  inhibition of FmlHLD binding to ds-BSM, in words: capable of inhibiting FmlHLD
FmlHLD [2]; [5]
  Kd: 189 ± 22.9 µM

## O=[N+]([O-])c1ccccc1O[C@@H]1O[C@H](CO)[C@H](O)[C@H](O)[C@H]1O [4β (ONPG), reference compound]
FmlHLD [2]; [5]
  Kd: 10.6 ± 4.6 µM

## OC[C@H]1O[C@@H](Oc2cc3c(O)cc(O)cc3[o+]c2-c2ccc(O)c(O)c2)[C@H](O)[C@@H](O)[C@H]1O [CG, reference compound]
FmlHLD [1]; [3]
  inhibition at 100 µM: 28.8%
FmlHLD [2]; Kd
  Kd: 212 µM

## CC(=O)N[C@H]1[C@H](Oc2ccccc2[N+](=O)[O-])O[C@H](CO)[C@H](O)[C@@H]1O [Compound 4β-NAc]
FmlHLD [1]; [6]
  PI10 (percent inhibition): 87.2 ± 1.7%
FmlHLD [1]; [7]
  inhibition at 1 µM: 28.6 ± 4.5%
FmlHLD [1]; [8]
  inhibition at 10 µM: 87%
FmlHLD [1]; [4]
  inhibition at 100 µM: 99.4 ± 1.3%
FmlHLD [2]; [5]
  Kd: 2.3 µM

## COc1ccccc1O[C@@H]1O[C@H](CO)[C@H](O)[C@H](O)[C@H]1O [Compound 5β, 2-methoxyphenyl β-D-galactopyranoside]
FmlHLD [1]; [6]
  PI100 (percent inhibition): 97.2 ± 0.4%
FmlHLD [1]; [7]
  inhibition at 1 µM: 10 ± 4.3%
FmlHLD [1]; [8]
  inhibition at 10 µM: 55.7 ± 1.6%
FmlHLD [1]; [4]
  inhibition at 100 µM: 97%
FmlHLD [2]; [5]
  Kd: 6.5 ± 1.4 µM

## OC[C@H]1O[C@@H](Oc2cccc3cccnc23)[C@H](O)[C@@H](O)[C@H]1O [Compound 8HQG, reference compound]
FmlHLD [1]; [9]
  inhibition at 1 µM: 19.2%
FmlHLD [1]; [10]
  inhibition at 10 µM: 48.1%
FmlHLD [1]; [3]
  inhibition at 100 µM: 95.1%
FmlHLD [2]; Kd
  Kd: 7.1 µM

## OC[C@H]1O[C@@H](Oc2cccc3cccnc23)[C@H](O)[C@@H](O)[C@H]1O [Compound 20β]
FmlHLD [1]; [6]
  PI100 (percent inhibition): 95.1 ± 1.1%
FmlHLD [1]; [7]
  inhibition at 1 µM: 19.2 ± 2.8%
FmlHLD [1]; [8]
  inhibition at 10 µM: 48.1 ± 2%
FmlHLD [1]; [4]
  inhibition at 100 µM: 95%
FmlHLD [2]; [5]
  Kd: 7.1 ± 2.3 µM

## O=C(O)c1cccc(-c2ccccc2O[C@@H]2O[C@H](CO)[C@H](O)[C@H](O)[C@H]2O)c1 [Compound 29β, 2′-(α/β-D-galactopyranosyloxy)-[1,1′-Biphenyl]-3-carboxylic acid]
FmlHLD [1]; [6]
  PI10 (percent inhibition): 75.1 ± 1.0%
FmlHLD [1]; [7]
  inhibition at 1 µM: 22.9 ± 5.1%
FmlHLD [1]; [8]
  inhibition at 10 µM: 75%
FmlHLD [1]; [4]
  inhibition at 100 µM: 99%
FmlHLD [2]; BLI Kd ratio
  enhancement in binding affinity relative to Gal: ~330 fold

## COc1ccccc1O[C@@H]1O[C@H](CO)[C@H](O)[C@H](O)[C@H]1O [Compound 149e]
FmlHLD [1]; [9]
  inhibition at 1 µM: 9.99%
FmlHLD [1]; [10]
  inhibition at 10 µM: 55.7%
FmlHLD [1]; [3]
  inhibition at 100 µM: 97.2%
FmlHLD [2]; Kd
  Kd: 6.5 µM

## CC(=O)N[C@H]1[C@H](Oc2ccccc2-c2cccc(C(=O)O)c2)O[C@H](CO)[C@H](O)[C@@H]1O [Compound 200b-GalNAc]
FmlHLD [1]; [9]
  inhibition at 1 µM: 35.1%
FmlHLD [1]; [10]
  inhibition at 10 µM: 93%
FmlHLD [1]; [3]
  inhibition at 100 µM: 99.5%
FmlHLD [2]; Kd
  Kd: 0.089 µM

## O=C(O)c1cccc(-c2ccccc2O[C@@H]2O[C@H](CO)[C@H](O)[C@H](O)[C@H]2O)c1 [Compound 200b]
FmlHLD [1]; [9]
  inhibition at 1 µM: 12.3%
FmlHLD [1]; [10]
  inhibition at 10 µM: 75.1%
FmlHLD [1]; [3]
  inhibition at 100 µM: 99%
FmlHLD [2]; Kd
  Kd: 2.1 µM

## CC(=O)N[C@H]1[C@@H](Oc2ccc([N+](=O)[O-])cc2)O[C@H](CO)[C@H](O)[C@@H]1O[C@@H]1O[C@H](CO)[C@H](O)[C@H](O)[C@H]1O [Gal-b1-3-PNPGalNAc, reference compound]
FmlHLD [1]; [11]
  % Inhibition at [μM] [100]: 15.28%

## CC(=O)N[C@H]1[C@H](Oc2ccc([N+](=O)[O-])cc2)O[C@H](CO)[C@@H](O)[C@@H]1O[C@@H]1O[C@H](CO)[C@H](O)[C@H](O)[C@H]1O [Gal-b1-3-PNPGlcNAc, reference compound]
FmlHLD [1]; [11]
  % Inhibition at [μM] [100]: −3.60%

## O=[N+]([O-])c1ccc(O[C@@H]2O[C@H](CO[C@@H]3O[C@H](CO)[C@H](O)[C@H](O)[C@H]3O)[C@H](O)[C@H](O)[C@H]2O)cc1 [Gal-b1-6-PNPG, reference compound]
FmlHLD [1]; [11]
  % Inhibition at [μM] [100]: 19.41%

## CC(=O)N[C@@H]1[C@@H](O[C@@H]2O[C@H](CO)[C@H](O)[C@H](O)[C@H]2O)[C@H](O)[C@@H](CO)O[C@@H]1O [Gal-β1-GalNAc, reference compound]
FmlHLD [2]; [5]
  Kd: 248 ± 20.3 µM

## CC(C)S[C@@H]1O[C@H](CO)[C@H](O)[C@H](O)[C@H]1O [IPTG, isopropyl β-thiogalactoside, reference compound]
FmlHLD [1]; [3]
  inhibition at 100 µM: 23.7%
FmlHLD [1]; [12]
  inhibition of FmlHLD binding to ds-BSM, in words: minor inhibitory activity

## Cc1cc(=O)oc2cc(O[C@@H]3O[C@H](CO)[C@H](O)[C@H](O)[C@H]3O)ccc12 [MUG, reference compound]
FmlHLD [1]; [9]
  inhibition at 1 µM: 8.73%
FmlHLD [1]; [10]
  inhibition at 10 µM: 19.7%
FmlHLD [1]; [3]
  inhibition at 100 µM: 85.2%

## O=c1c(O[C@@H]2O[C@H](CO)[C@H](O)[C@H](O)[C@H]2O)c(-c2cc(O)c(O)c(O)c2)oc2cc(O)cc(O)c12 [MyrG, reference compound]
FmlHLD [1]; [3]
  inhibition at 100 µM: 10.8%

## O=[N+]([O-])c1ccccc1O[C@@H]1O[C@H](CO)[C@H](O)[C@H](O)[C@H]1O [ONPG, o-nitrophenyl β-galactoside, reference compound]
FmlHLD [1]; [9]
  inhibition at 1 µM: 14.2%
FmlHLD [1]; [10]
  inhibition at 10 µM: 31.1%
FmlHLD [1]; [3]
  inhibition at 100 µM: 93%
FmlHLD [1]; [12]
  inhibition of FmlHLD binding to ds-BSM, in words: more effectively than Gal, GalNAc, or TF

## O=[N+]([O-])c1ccccc1O[C@@H]1O[C@H](COP(=O)(O)O)[C@H](O)[C@H](O)[C@H]1O [ONPG-6P, reference compound]
FmlHLD [1]; [11]
  % Inhibition at [μM] [100]: 1.31%

## CC(=O)N[C@H]1[C@H](Oc2ccccc2[N+](=O)[O-])O[C@H](CO)[C@H](O)[C@@H]1O [ONPG-NAc]
FmlHLD [1]; [9]
  inhibition at 1 µM: 22.4%
FmlHLD [1]; [10]
  inhibition at 10 µM: 87.2%
FmlHLD [1]; [3]
  inhibition at 100 µM: 99.4%

## O=C(O)C1OC(Oc2ccc([N+](=O)[O-])cc2)C(O)C(O)C1O (stereo not drawn) [PNP Galacturonide, reference compound]
FmlHLD [1]; [11]
  % Inhibition at [μM] [100]: −2.40%

## CC(=O)N[C@H]1[C@@H](Oc2ccc([N+](=O)[O-])cc2)O[C@H](CO)[C@H](O)[C@@H]1O [PNP-aGalNAc, reference compound]
FmlHLD [1]; compound at 10 μM, inhibition of FmlHLD binding to ds-BSM
  % Inhibition at [μM] [10]: 6.29%
FmlHLD [1]; [11]
  % Inhibition at [μM] [100]: 82.04%

## O=[N+]([O-])c1ccc(S[C@@H]2O[C@H](CO)[C@H](O)[C@H](O)[C@H]2O)cc1 [PNPTG, reference compound]
FmlHLD [1]; [10]
  inhibition at 10 µM: 17%
FmlHLD [1]; [3]
  inhibition at 100 µM: 72.5%

## OC[C@H]1O[C@@H](Oc2cc3c(O)cc(O)cc3[o+]c2-c2ccc(O)cc2)[C@H](O)[C@@H](O)[C@H]1O [PelG, reference compound]
FmlHLD [1]; [3]
  inhibition at 100 µM: 0.74%

## COc1cc(-c2[o+]c3cc(O)cc(O)c3cc2O[C@@H]2O[C@H](CO)[C@H](O)[C@H](O)[C@H]2O)ccc1O [PeoG, reference compound]
FmlHLD [1]; [3]
  inhibition at 100 µM: 3.64%

## OC[C@H]1O[C@@H](Oc2ccccc2)[C@H](O)[C@@H](O)[C@H]1O [Phenyl Gal, reference compound]
FmlHLD [1]; [10]
  inhibition at 10 µM: 15.5%
FmlHLD [1]; [3]
  inhibition at 100 µM: 76.9%

## O=c1c(O[C@@H]2O[C@H](CO)[C@H](O)[C@H](O)[C@H]2O)c(-c2ccc(O)c(O)c2)oc2cc(O)cc(O)c12 [QG, reference compound]
FmlHLD [1]; [3]
  inhibition at 100 µM: 14.4%
FmlHLD [2]; Kd
  Kd: 391 µM

## O=c1ccc2nc3ccc(O[C@@H]4O[C@H](CO)[C@H](O)[C@H](O)[C@H]4O)cc3oc-2c1 [Resorufin Gal, reference compound]
FmlHLD [1]; [10]
  inhibition at 10 µM: 24%
FmlHLD [1]; [3]
  inhibition at 100 µM: 80.4%

## OC[C@H]1O[C@@H](Oc2c[nH]c3cc(Cl)ccc23)[C@H](O)[C@@H](O)[C@H]1O [Salmon Gal, reference compound]
FmlHLD [1]; [3]
  inhibition at 100 µM: 41.2%

## CC(=O)N[C@@H]1[C@@H](O[C@@H]2O[C@H](CO)[C@H](O)[C@H](O)[C@H]2O)[C@@H](O)[C@@H](CO)O[C@@H]1O [TF, Gal-β1-3-GalNAc-α, reference compound]
FmlHLD [1]; [3]
  inhibition at 100 µM: 15.5%
FmlHLD [1]; [4]
  inhibition at 100 µM: 15.5 ± 6.7%
FmlHLD [1]; soluble compound at 1 mM
  inhibition of FmlHLD binding to ds-BSM, in words: capable of inhibiting FmlHLD
FmlHLD [2]; Kd
  Kd: 248 µM

## O=[N+]([O-])c1ccc(O[C@@H]2O[C@H](CO)[C@H](O)[C@H](O)[C@H]2O)cc1 [p-Nitrophenyl Gal, reference compound]
FmlHLD [1]; [10]
  inhibition at 10 µM: 13.7%
FmlHLD [1]; [3]
  inhibition at 100 µM: 78.1%
